Data: US20050119190A1, “Inhibitors of the blood-clotting factor xa, production thereof and use of the same” (priority 2002, published 2005)
Where a name gives a salt, the structure may show the parent alone.

target: T1, F Xa (bovine) (Bos taurus, UniProt P00743); assay: Inhibition of F Xa, Ki by the method of Dixon, chromogenic substrate Moc-D-Nle-Gly-Arg-pNA; type: biochemical; conditions: Example 2; bovine F Xa, 25° C., pH 8.0; average of at least three determinations
T1 construct: purchased Diagnostic Reagents Ltd, Thame, GB
T1 sequence (P00743 234-492 limits assumed): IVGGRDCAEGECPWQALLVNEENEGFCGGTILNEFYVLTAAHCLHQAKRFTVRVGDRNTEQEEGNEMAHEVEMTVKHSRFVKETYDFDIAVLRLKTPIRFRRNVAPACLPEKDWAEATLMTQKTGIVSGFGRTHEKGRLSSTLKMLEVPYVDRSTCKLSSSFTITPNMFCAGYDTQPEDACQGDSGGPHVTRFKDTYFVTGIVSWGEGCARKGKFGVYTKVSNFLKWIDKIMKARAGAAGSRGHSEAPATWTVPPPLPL
T1 sequence (P00743 41-180 partner limits assumed): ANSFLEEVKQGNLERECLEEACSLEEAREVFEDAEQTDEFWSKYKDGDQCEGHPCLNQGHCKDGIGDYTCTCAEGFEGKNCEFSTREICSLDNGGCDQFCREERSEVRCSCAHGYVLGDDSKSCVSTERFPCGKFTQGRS
Protocol: The inhibitory effect was determined by incubating 200 μl of Tris buffer (0.05 M, 0.154 M NaCI, 5% ethanol, pH 8.0; contains the inhibitor), 25 μl of substrate (Moc-D-Nle-Gly-Arg-pNA in H2O; Pentapharm Ltd., Basel, Switzerland) and 50 μl of F Xa (bovine, Diagnostic Reagents Ltd, Thame, GB) at 25° C. After 3 min, the reaction was stopped by adding 25 μl of acetic acid (50%), and the absorption at 405 nm was determined using a microplate reader (MR 5000, Dynatech, Denkendorf, Germany). The Ki values were found by the method of Dixon (Biochem. J. 55, 170-171, 1953) by linear regression using a computer program. The Ki values are the average of at least three determinations.

Row | Ki [nM] | Molecule
1 | 50 | CC(C)(C)OC[C@@H](NS(=O)(=O)Cc1ccccc1)C(=O)NCC(=O)NCc1ccc(C(=N)N)cc1 [Bzl—SO2 D CH2—O—tBu H CH2 CH2, Benzylsulfonyl-D-Ser(tBu)-Gly 4-amidinobenzylamide]
2 | 250 | CC(C)(C)OC[C@@H](NS(=O)(=O)Cc1ccccc1)C(=O)N[C@@H](CCC(=O)O)C(=O)NCc1ccc(C(=N)N)cc1 [Bzl—SO2 D CH2—O—tBu H CH—(CH2)2—COOH CH2, Benzylsulfonyl-D-Ser(tBu)-Glu 4-amidinobenzylamide×TFA]
3 | 1200 | CC(C)(C)OC[C@@H](NS(=O)(=O)Cc1ccccc1)C(=O)NC(CC(=O)O)C(=O)NCc1ccc(C(=N)N)cc1 (stereo partly drawn) [Bzl—SO2 D CH2—O—tBu H CH—CH2—COOH CH2]

same assay, conditions: Example 4; inhibition of factor Xa by inhibitors of formula I

Row | Molecule | Ki [nM]
4 | 4-(Aminomethyl)benzylsulfonyl-dSer(tBu)-Gly 4-amidinobenzylamide×2 TFA [Example 7] | 29
5 | N=C(N)c1ccc(CNC(=O)CNC(=O)[C@@H](Cc2cccc(C(=N)N)c2)NS(=O)(=O)Cc2ccccc2)cc1 [No. 1, Benzylsulfonyl-dPhe(3-amidino)-Gly 4-(amidino)benzylamide×2 TFA] | 34
6 | CC(C)(C)OC[C@@H](NS(=O)(=O)Cc1ccccc1)C(=O)N[C@@H](CO)C(=O)NCc1ccc(C(=N)N)cc1 [No. 11, Bzls-dSer(tBu)-Ser 4-(amidino)benzylamide×TFA] | 28
7 | CC(C)(C)OC[C@@H](NS(=O)(=O)Cc1cccc(C(=O)O)c1)C(=O)NCC(=O)NCc1ccc(C(=N)N)cc1 [No. 19, 3-(HOOC)Benzylsulfonyl-dSer(tBu)-Gly 4-amidinobenzylamide×TFA] | 27
8 | N=C(N)NCCC[C@@H](NS(=O)(=O)CC1CCCCC1)C(=O)NCC(=O)NCc1ccc(C(=N)N)cc1 [compound 2] | 6.7
9 | CC(C)(C)OC[C@@H](NS(=O)(=O)Cc1ccc(Cl)cc1)C(=O)NCC(=O)NCc1ccc(C(=N)N)cc1 [compound 3] | 14
10 | CC(C)(C)OC[C@@H](NS(=O)(=O)Cc1ccccc1)C(=O)N[C@@H](CO)C(=O)NCc1ccc(C(=N)N)cc1 [compound 11] | 54
11 | CC(C)(C)OC[C@@H](NS(=O)(=O)Cc1ccc(C#N)cc1)C(=O)NCC(=O)NCc1ccc(C(=N)N)cc1 [compound 12] | 65
12 | N=C(N)c1ccc(CNC(=O)C(CCCCN)NC(=O)C(CC2CCCCC2)NS(=O)(=O)Cc2ccccc2)cc1 (stereo not drawn) [compound 13] | 67
13 | COC(=O)Cc1ccc(CS(=O)(=O)N[C@H](COC(C)(C)C)C(=O)NCC(=O)NCc2ccc(C(=N)N)cc2)cc1 [compound 14] | 70
14 | CC(C)(C)OC[C@@H](NS(=O)(=O)Cc1ccc(Cl)c(Cl)c1)C(=O)NCC(=O)NCc1ccc(C(=N)N)cc1 [compound 16] | 83
15 | CC(C)(C)OC[C@@H](NS(=O)(=O)Cc1cccc(C(=O)O)c1)C(=O)NCC(=O)NCc1ccc(C(=N)N)cc1 [compound 19] | 130
16 | COC(=O)c1ccc(CS(=O)(=O)N[C@H](COC(C)(C)C)C(=O)NCC(=O)NCc2ccc(C(=N)N)cc2)cc1 [compound 21] | 160
17 | N=C(N)c1ccc(CNC(=O)CNC(=O)[C@@H](Cc2ccc(C(=N)N)cc2)NS(=O)(=O)Cc2ccccc2)cc1 [compound 26] | 260
18 | CC(C)(C)OC[C@@H](NS(=O)(=O)CCc1cccc2ccccc12)C(=O)NCC(=O)NCc1ccc(C(=N)N)cc1 [compound 28] | 280
19 | N=C(N)c1ccc(CNC(=O)CNC(=O)[C@@H](Cc2c[nH]cn2)NS(=O)(=O)Cc2ccccc2)cc1 [compound 32] | 670

The next lines start with the values.

Row | Ki [nM] | Molecule
20 | 6.5 | CC(C)(C)OC[C@@H](NS(=O)(=O)Cc1ccccc1)C(=O)N[C@@H](CCC(=O)O)C(=O)NCc1ccc(C(=N)N)cc1 [Bzl—SO2 D CH2—O—tBu H CH—(CH2)2—COOH CH2, Benzylsulfonyl-D-Ser(tBu)-Glu 4-amidinobenzylamide×TFA]
21 | 36 | CC(C)(C)OC[C@@H](NS(=O)(=O)Cc1ccc(F)cc1)C(=O)NCC(=O)NCc1ccc(C(=N)N)cc1 [compound 9]
22 | 53 | CC(C)(C)OC[C@@H](NS(=O)(=O)Cc1ccc(C(=O)O)cc1)C(=O)NCC(=O)NCc1ccc(C(=N)N)cc1 [compound 10]
23 | 78 | CC(C)(C)OC[C@@H](NS(=O)(=O)Cc1ccc2ccccc2c1)C(=O)NCC(=O)NCc1ccc(C(=N)N)cc1 [compound 15]
24 | 88 | CC(C)(C)OC[C@@H](NS(=O)(=O)CCc1ccccc1)C(=O)NCC(=O)NCc1ccc(C(=N)N)cc1 [compound 17]
25 | 140 | CC(C)(C)OC[C@@H](NS(=O)(=O)Cc1ccccc1C(=O)O)C(=O)NCC(=O)NCc1ccc(C(=N)N)cc1 [compound 20]
26 | 170 | CC(C)(C)OC[C@@H](NS(=O)(=O)Cc1ccncc1)C(=O)NCC(=O)NCc1ccc(C(=N)N)cc1 [compound 22]
27 | 170 | CC(C)(C)OC[C@@H](NS(=O)(=O)Cc1ccc(CC(=O)O)cc1)C(=O)NCC(=O)NCc1ccc(C(=N)N)cc1 [compound 23]
28 | 270 | CC(C)(C)OCC(NS(=O)(=O)Cc1ccc(C(=O)O)cc1)C(=O)NC(CO)C(=O)NCc1ccc(C(=N)N)cc1 (stereo not drawn) [compound 27]
29 | 26000 | CC(C)(C)OC[C@@H](NS(=O)(=O)Cc1ccccc1)C(=O)NCC(=O)NCc1ccc(C(N)=NO)cc1 [compound 33]

target: F Xa; assay: not given; conditions: values from cited literature; cited from earlier work

Row | Molecule | Ki [nM]
30 | N=C(N)c1ccc(C=C2CCCCC(=Cc3ccc(C(=N)N)cc3)C2=O)cc1 [BABCH] | 13
